Source: PubChem BioAssay (NCI)
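Test compounds were applied to cells in 96-well plates for 48 hours at 5 doses. At the TGI there is no net growth.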

Assays:
Assay in all cases: NCI tumour cell line growth inhibition, 48 h
786-0 renal = test system: 786-0 renal
BT-549 breast = test system: BT-549 breast
COLO 205 colon = test system: COLO 205 colon
HCC-2998 colon = test system: HCC-2998 colon
HL-60(TB) leukemia = test system: HL-60(TB) leukemia
K-562 leukemia = test system: K-562 leukemia
LOX IMVI melanoma = test system: LOX IMVI melanoma
OVCAR-3 ovarian = test system: OVCAR-3 ovarian
SNB-75 CNS = test system: SNB-75 CNS
SR leukemia = test system: SR leukemia

SMILES	TGI (786-0 renal)	TGI (BT-549 breast)	TGI (COLO 205 colon)	TGI (HCC-2998 colon)	TGI (HL-60(TB) leukemia)	TGI (K-562 leukemia)	TGI (LOX IMVI melanoma)	TGI (OVCAR-3 ovarian)	TGI (SNB-75 CNS)	TGI (SR leukemia)
CN(C)CCCNC(=O)c1c(O)c2ccccc2n(C)c1=O	> 100 µM	> 100 µM	> 100 µM	> 100 µM	> 100 µM	> 100 µM	> 100 µM	> 100 µM	> 100 µM	> 100 µM
COC(=O)N1N=C(c2ccccc2)C1c1ccccc1 (stereo not given)	> 100 µM	> 100 µM	> 100 µM	> 100 µM	> 100 µM	72.7 µM	82.8 µM	> 100 µM	> 100 µM	> 100 µM
C(=C\c1ccccc1)/COc1ccccc1C(N1CCOCC1)n1nc2ccccc2n1 (stereo not given)	15.8 µM	26.4 µM	36.6 µM	34.8 µM	1.45 µM	4.26 µM	13.5 µM	7.04 µM	16.9 µM	5.49 µM
Cc1cc(C)nc(NS(=O)(=O)c2ccc(NC(=O)c3cccc4c(NNc5ccc(S(=O)(=O)N=C(N)N)cc5)c5ccccc5nc34)cc2)n1	> 50 µM	> 50 µM	> 50 µM	> 50 µM	> 50 µM	> 50 µM	> 50 µM	> 50 µM	> 50 µM	> 50 µM
Cc1cc(NS(=O)(=O)c2ccc(NC(NC(=O)C(C(F)(F)F)C(F)(F)F)(C(F)(F)F)C(F)(F)F)cc2)no1	> 100 µM	> 100 µM	> 100 µM	> 100 µM	> 100 µM	> 100 µM	> 100 µM	> 100 µM	> 100 µM	> 100 µM
CC#CC(O)(C(=O)OC1CC(C)N(C)C(C)(C)C1)C1CCCC1 (stereo not given)	> 100 µM	> 100 µM	> 100 µM	> 100 µM	> 100 µM	> 100 µM	> 100 µM	> 100 µM	> 100 µM	> 100 µM
O=S1SC(=S)C2C=CC=CC21 (stereo not given)	> 100 µM	> 100 µM	> 100 µM	> 100 µM	> 100 µM	> 100 µM	> 100 µM	> 100 µM	> 100 µM	> 100 µM
CCNc1ncnc2sc(SCc3ccccc3)nc12	> 100 µM	> 100 µM	> 100 µM	> 100 µM	56.4 µM	> 100 µM	> 100 µM	> 100 µM	> 100 µM	> 100 µM
CCOP(=O)(OCC)OC1CC(n2cc(C)c(=O)n(C)c2=O)OC1CO[Si](C)(C)C(C)(C)C (stereo not given)	> 100 µM	> 100 µM	> 100 µM	> 100 µM	57.4 µM	> 100 µM	> 100 µM	> 100 µM	> 100 µM	> 100 µM
COc1cc2[nH]c(-c3ccccc3)cc(=O)c2c(OC)c1OC	> 100 µM	> 100 µM	> 100 µM	> 100 µM	> 100 µM	> 100 µM	> 100 µM	> 100 µM	> 100 µM	> 100 µM
COc1nc2c(N3CCCC3)nc(N3CCNCC3)nc2nc1NCc1ccccc1	2.66 µM	4.01 µM	1.98 µM	2.79 µM	3.7 µM	3.58 µM	2.9 µM	2.42 µM	4.19 µM	3.37 µM
O=[N+]([O-])/C(Cl)=C(\NCCN/C(C(Cl)=C(Cl)Cl)=C(/Cl)[N+](=O)[O-])C(Cl)=C(Cl)Cl	> 100 µM	> 100 µM	> 100 µM	> 100 µM	87.5 µM	> 100 µM	37.8 µM	> 100 µM	> 100 µM	50.4 µM
CCN(CC)CCO/N=C1\CC[C@H]2[C@@H]3CCc4cc(OC)ccc4[C@H]3CC[C@]12C	3.27 µM	19 µM	3.03 µM	3.33 µM	3.12 µM	2.53 µM	2.04 µM	15.5 µM	9.25 µM	4.31 µM
COc1ccc(Oc2cnn(C(Br)(Br)C(C)=O)c(=O)c2Br)cc1	27.4 µM	32.1 µM	26.9 µM	30.6 µM	10.9 µM	16.9 µM	24.4 µM	13.6 µM	29.4 µM	5.32 µM
